According to patent publication US20120316187A1, “MOLECULAR BIOMARKERS FOR PREDICTING RESPONSE TO TYROSINE KINASE INHIBITORS IN LUNG CANCER” (PANGAEA BIOTECH, S.L., priority 2009, published 2012):
Like-named read-outs stand apart in the source and are kept apart here.

How the values were obtained:
[1] = test system: non-small-cell lung cancer patients with EGFR mutations; conditions: for TTP (months): first line treatment with erlotinib
From the text: The term “clinical response”, as used herein, refers to the response of the subject suffering from NSCLC to a therapy with a tyrosine kinase inhibitor. Standard criteria (Miller, et al. Cancer, 1981; 47:207-14) that can be used herewith to evaluate the response to chemotherapy include response, stabilization and progression. It can be a complete response (or complete remission) which is the disappearance of all detectable malignant disease or a partial response which is defined as approximately >50% decrease in the sum of products of the largest perpendicular diameters of one or more lesions (tumor lesions), no new lesions and no progression of any lesion. Patients achieving complete or partial response were considered “responders”, and all other patients were considered “non-responders”.
The presence of the T790M mutation was examined in 129 patients for whom pretreatment tumor tissue was available.

T790M resistance mutants = conditions: in vitro; cited from earlier work
[2] = 81 patients, BRCA1 4.92-10.7 N = 27
[3] = 81 patients, BRCA1 >10.7 N = 27
[4] = 81 patients, BRCA1 ≦4.92 N = 27
[5] = 129 patients, patients with the T790M mutation
[6] = 129 patients, patients without the T790M mutation
[7] = patients with the T790M mutation, BRCA1 4.92-11.79
[8] = patients with the T790M mutation, BRCA1 >11.79
[9] = patients with the T790M mutation, BRCA1 ≦4.92
[10] = patients without the T790M mutation, BRCA1 4.92-11.79
[11] = patients without the T790M mutation, BRCA1 >11.79
[12] = patients without the T790M mutation, BRCA1 ≦4.92

C#Cc1cccc(Nc2ncnc3cc(OCCOC)c(OCCOC)cc23)c1 [erlotinib, [6,7-bis(2-methoxyethoxy)-4-quinazolin-4-yl]-(3-ethynylphenyl)amine]
median progression-free survival ([1]; 28 patients harboring the T790M mutation, high BRCA1 levels): 8 months | median progression-free survival ([1]; 28 patients harboring the T790M mutation, intermediate BRCA1 levels): 4 months | median progression-free survival ([1]; 28 patients harboring the T790M mutation, low BRCA1 levels): 19 months | progression-free survival ([1]; 34 patients receiving erlotinib as first-line treatment (so in the source), high BRCA1 levels): 9 months | progression-free survival ([1]; 34 patients receiving erlotinib as first-line treatment (so in the source), intermediate BRCA1 levels): 24 months | progression-free survival ([1]; 34 patients receiving erlotinib as first-line treatment (so in the source), low BRCA1 levels): not reached | progression-free survival ([1]; 47 patients receiving erlotinib as first-line treatment, high BRCA1 levels): 16 months | progression-free survival ([1]; 47 patients receiving erlotinib as first-line treatment, intermediate BRCA1 levels): 9 months | progression-free survival ([1]; 47 patients receiving erlotinib as first-line treatment, low BRCA1 levels): 27 months | median progression-free survival ([1]; 53 patients without the T790M mutation, high BRCA1 levels): 12 months | median progression-free survival ([1]; 53 patients without the T790M mutation, intermediate BRCA1 levels): not reached | median progression-free survival ([1]; 53 patients without the T790M mutation, low BRCA1 levels): 27 months | progression-free survival ([1]; 64 patients receiving erlotinib as second-line treatment, with the T790M mutation): 13 months | progression-free survival ([1]; 64 patients receiving erlotinib as second-line treatment, without the T790M mutation): 18 months | progression-free survival ([1]; 65 patients receiving erlotinib as first-line treatment, with the T790M mutation): 8 months | progression-free survival ([1]; 65 patients receiving erlotinib as first-line treatment, without the T790M mutation): 18 months | Complete or partial response, (%) [1, 2]: (72) % | Complete response, (%) [1, 2]: (16) % | Partial response, (%) [1, 2]: (56) % | Progressive disease, (%) [1, 2]: (12) % | Stable disease, (%) [1, 2]: (16) % | Complete or partial response, (%) [1, 3]: (68.2) % | Complete response, (%) [1, 3]: (9.1) % | Partial response, (%) [1, 3]: (59.1) % | Progressive disease, (%) [1, 3]: (9.1) % | Stable disease, (%) [1, 3]: (22.7) % | Complete or partial response, (%) [1, 4]: (76) % | Complete response, (%) [1, 4]: (20) % | Partial response, (%) [1, 4]: (56) % | Progressive disease, (%) [1, 4]: (8) % | Stable disease, (%) [1, 4]: (16) % | Median progression-free survival to erlotinib ([1]; 81 patients, high BRCA1 levels): 10 months | Median progression-free survival to erlotinib ([1]; 81 patients, intermediate BRCA1 levels): 18 months | Overall survival ([1]; 81 patients, intermediate or high BRCA1 levels): not reached | Median progression-free survival to erlotinib ([1]; 81 patients, low BRCA1 levels): 27 months | Overall survival ([1]; 81 patients, low BRCA1 levels): 33 months | Overall survival [1, 5]: 27 months | median progression-free survival [1, 5]: 12 months | Overall survival [1, 6]: 29 months | median progression-free survival [1, 6]: 18 months | Complete or partial response, (%) ([1]; All patients N = 129): (68.9) % | Complete response, (%) ([1]; All patients N = 129): (10.3) % | Partial response, (%) ([1]; All patients N = 129): (58.6) % | Progressive disease, (%) ([1]; All patients N = 129): (12.9) % | Stable disease, (%) ([1]; All patients N = 129): (18.1) % | Complete or partial response, (%) ([1]; T790M-negative N = 84): (72.3) % | Complete response, (%) ([1]; T790M-negative N = 84): (13.9) % | Partial response, (%) ([1]; T790M-negative N = 84): (58.3) % | Progressive disease, (%) ([1]; T790M-negative N = 84): (11.1) % | Stable disease, (%) ([1]; T790M-negative N = 84): (16.7) % | Complete or partial response, (%) ([1]; T790M-positive N = 45): (63.6) % | Complete response, (%) ([1]; T790M-positive N = 45): (4.5) % | Partial response, (%) ([1]; T790M-positive N = 45): (59.1) % | Progressive disease, (%) ([1]; T790M-positive N = 45): (15.9) % | Stable disease, (%) ([1]; T790M-positive N = 45): (20.5) % | TTP (months) ([1]; T790M mutation No, BRCA1 levels High/Intermediate): 18 months | TTP (months) ([1]; T790M mutation No, BRCA1 levels Low): 27 months | TTP (months) ([1]; T790M mutation Yes, BRCA1 levels High/Intermediate): 3 months | TTP (months) ([1]; T790M mutation Yes, BRCA1 levels Low): 27 months | Complete or partial response, number of patients [1, 7]: 5 | Complete or partial response, share in parentheses [1, 7]: (55.6) | Complete response, number of patients [1, 7]: 0 | Complete response, share in parentheses [1, 7]: (0) | Partial response, number of patients [1, 7]: 5 | Partial response, share in parentheses [1, 7]: (55.6) | Progressive disease, number of patients [1, 7]: 2 | Progressive disease, share in parentheses [1, 7]: (22.2) | Stable disease, number of patients [1, 7]: 2 | Stable disease, share in parentheses [1, 7]: (22.2) | Complete or partial response, number of patients [1, 8]: 7 | Complete or partial response, share in parentheses [1, 8]: (77.8) | Complete response, number of patients [1, 8]: 1 | Complete response, share in parentheses [1, 8]: (11.1) | Partial response, number of patients [1, 8]: 6 | Partial response, share in parentheses [1, 8]: (66.7) | Progressive disease, number of patients [1, 8]: 1 | Progressive disease, share in parentheses [1, 8]: (11.1) | Stable disease, number of patients [1, 8]: 1 | Stable disease, share in parentheses [1, 8]: (11.1) | Complete or partial response, number of patients [1, 9]: 7 | Complete or partial response, share in parentheses [1, 9]: (70) | Complete response, number of patients [1, 9]: 1 | Complete response, share in parentheses [1, 9]: (10) | Partial response, number of patients [1, 9]: 6 | Partial response, share in parentheses [1, 9]: (60) | Progressive disease, number of patients [1, 9]: 1 | Progressive disease, share in parentheses [1, 9]: (10) | Stable disease, number of patients [1, 9]: 2 | Stable disease, share in parentheses [1, 9]: (20) | Complete or partial response, number of patients [1, 10]: 13 | Complete or partial response, share in parentheses [1, 10]: (76.5) | Complete response, number of patients [1, 10]: 4 | Complete response, share in parentheses [1, 10]: (23.5) | Partial response, number of patients [1, 10]: 9 | Partial response, share in parentheses [1, 10]: (52.9) | Progressive disease, number of patients [1, 10]: 1 | Progressive disease, share in parentheses [1, 10]: (5.9) | Stable disease, share in parentheses [1, 10]: (17.6) | Complete or partial response, number of patients [1, 11]: 7 | Complete or partial response, share in parentheses [1, 11]: (63.6) | Complete response, number of patients [1, 11]: 1 | Complete response, share in parentheses [1, 11]: (9.1) | Partial response, number of patients [1, 11]: 6 | Partial response, share in parentheses [1, 11]: (54.5) | Progressive disease, number of patients [1, 11]: 1 | Progressive disease, share in parentheses [1, 11]: (9.1) | Stable disease, share in parentheses [1, 11]: (27.3) | Complete or partial response, number of patients [1, 12]: 13 | Complete or partial response, share in parentheses [1, 12]: (81.3) | Complete response, number of patients [1, 12]: 4 | Complete response, share in parentheses [1, 12]: (25) | Partial response, number of patients [1, 12]: 9 | Partial response, share in parentheses [1, 12]: (56.3) | Progressive disease, number of patients [1, 12]: 1 | Progressive disease, share in parentheses [1, 12]: (6.3) | Stable disease, number of patients [1, 12]: 2 | Stable disease, share in parentheses [1, 12]: (12.5) | progression-free survival ([1]; subgroup of 48 patients with L858R, with the T790M mutation): 16 months | progression-free survival ([1]; subgroup of 48 patients with L858R, without the T790M mutation): 15 months | progression-free survival ([1]; subgroup of 81 patients with del 19, with the T790M mutation): 12 months | progression-free survival ([1]; subgroup of 81 patients with del 19, without the T790M mutation): 20 months

CC#CC(=O)Nc1ccc2ncnc(Nc3cccc(Br)c3)c2c1 [CL-387,785]
inhibition of growth of the T790M resistance mutants (T790M resistance mutants): inhibit the growth of the T790M resistance mutants
